Assay: mn = molality of the nth substance listed, in mol/kg
Settings: 100 kPa, Liquid; for viscosity: Capillary tube (Ostwald / Ubbelohde) method; for mass density: Vibrating tube method

O=C1O[C@H]([C@@H](O)CO)C(O)=C1O [L-ascorbic acid] + O
Settings | mass density, 293.15 K [kg/m3] | mass density, 303.15 K [kg/m3] | mass density, 313.15 K [kg/m3] | mass density, 323.15 K [kg/m3] | viscosity, 293.15 K [mPa·s] | viscosity, 303.15 K [mPa·s] | viscosity, 313.15 K [mPa·s] | viscosity, 323.15 K [mPa·s]
m1 = 0.1 | 1005.25 | 1002.56 | 999.06 | 994.78 | 1.042 | 0.828 | 0.677 | 0.565
m1 = 0.2 | 1012.12 | 1009.33 | 1005.69 | 1001.31 | 1.09 | 0.858 | 0.699 | 0.584
m1 = 0.2002 | 1012.12 | 1009.33 | 1005.69 | 1001.31 | 1.09 | 0.858 | 0.699 | 0.584
m1 = 0.3 | 1018.82 | 1015.91 | 1012.2 | 1007.78 | 1.128 | 0.894 | 0.724 | 0.603
m1 = 0.3141 | 1018.82 | 1015.91 | 1012.2 | 1007.78 | 1.128 | 0.894 | 0.724 | 0.603
m1 = 0.4 | 1025.4 | 1022.39 | 1018.62 | 1014.08 | 1.167 | 0.922 | 0.751 | 0.623

OC[C@@H](O)[C@@H](O)[C@H](O)[C@H](O)CO [mannitol] + O
Settings | mass density, m1 = 0.2003 [kg/m3] | mass density, m1 = 0.4001 [kg/m3] | mass density, m1 = 0.5999 [kg/m3] | mass density, m1 = 0.7997 [kg/m3] | mass density, m1 = 1 [kg/m3] | viscosity, m1 = 0.2003 [mPa·s] | viscosity, m1 = 0.4001 [mPa·s] | viscosity, m1 = 0.5999 [mPa·s] | viscosity, m1 = 0.7997 [mPa·s] | viscosity, m1 = 1 [mPa·s]
293.15 K | 1010.6 | 1022.32 | 1033.48 | 1044.08 | 1054.22 | 1.106 | 1.219 | 1.345 | 1.486 | 1.634
303.15 K | 1007.89 | 1019.47 | 1030.47 | 1040.9 | 1050.86 | 0.875 | 0.957 | 1.048 | 1.151 | 1.256
313.15 K | 1004.33 | 1015.78 | 1026.64 | 1036.96 | 1046.81 | 0.713 | 0.774 | 0.842 | 0.918 | 0.996
323.15 K | 1000.02 | 1011.34 | 1022.08 | 1032.29 | 1042.03 | 0.592 | 0.64 | 0.693 | 0.751 | 0.811

OC[C@@H](O)[C@@H](O)CO [meso-1,2,3,4-butanetetrol] + O
Settings | mass density, m1 = 0.2002 [kg/m3] | mass density, m1 = 0.4001 [kg/m3] | mass density, m1 = 0.6001 [kg/m3] | mass density, m1 = 0.7984 [kg/m3] | mass density, m1 = 0.9998 [kg/m3] | viscosity, m1 = 0.2002 [mPa·s] | viscosity, m1 = 0.4001 [mPa·s] | viscosity, m1 = 0.6001 [mPa·s] | viscosity, m1 = 0.7984 [mPa·s] | viscosity, m1 = 0.9998 [mPa·s]
293.15 K | 1005.26 | 1012.03 | 1018.54 | 1024.74 | 1030.79 | 1.069 | 1.134 | 1.204 | 1.278 | 1.358
303.15 K | 1002.58 | 1009.24 | 1015.65 | 1021.76 | 1027.73 | 0.849 | 0.895 | 0.947 | 1.001 | 1.058
313.15 K | 999.05 | 1005.61 | 1011.9 | 1017.92 | 1023.81 | 0.69 | 0.727 | 0.766 | 0.806 | 0.849
323.15 K | 994.8 | 1001.29 | 1007.55 | 1013.53 | 1019.39 | 0.576 | 0.604 | 0.634 | 0.665 | 0.698

OC[C@@H](O)[C@H](O)[C@@H](O)CO [xylitol] + O
Settings | mass density, m1 = 0.2002 [kg/m3] | mass density, m1 = 0.4 [kg/m3] | mass density, m1 = 0.5996 [kg/m3] | mass density, m1 = 0.7997 [kg/m3] | mass density, m1 = 1 [kg/m3] | viscosity, m1 = 0.2002 [mPa·s] | viscosity, m1 = 0.4 [mPa·s] | viscosity, m1 = 0.5996 [mPa·s] | viscosity, m1 = 0.7997 [mPa·s] | viscosity, m1 = 1 [mPa·s]
293.15 K | 1008.14 | 1017.61 | 1026.67 | 1035.36 | 1043.71 | 1.081 | 1.168 | 1.249 | 1.343 | 1.449
303.15 K | 1005.4 | 1014.72 | 1023.62 | 1032.15 | 1040.36 | 0.858 | 0.917 | 0.981 | 1.056 | 1.125
313.15 K | 1001.83 | 1010.99 | 1019.76 | 1028.15 | 1036.24 | 0.699 | 0.743 | 0.792 | 0.845 | 0.901
323.15 K | 997.51 | 1006.53 | 1015.16 | 1023.43 | 1031.37 | 0.582 | 0.617 | 0.655 | 0.695 | 0.739

From the NIST ThermoML archive (doi:10.1021/je400395u)
